Results published in PMC11845477, “Exploring the principles behind antibiotics with limited resistance” (Nature Communications, 2025).
Like-named read-outs stand apart in the source and are kept apart here.

Columns and labels:
[1] = system: K. pneumoniae ATCC 10031 (SEN) and K. pneumoniae ATCC 700603 (MDR); test: Frequency-of-resistance (FoR) assay, relative MIC of mutants; format: cell-based, Klebsiella pneumoniae; details: for MIC: Klebsiella pneumoniae
Method in brief: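 Relative MIC is mutant MIC divided by ancestor MIC. Mutants: ten colonies from the highest-concentration plate after ~10^10 MHB-grown cells spent 48 h at 37 °C on antibiotic agar (triplicates, susceptible-range concentrations).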

[2] = system: K. pneumoniae ATCC 10031 (SEN) and K. pneumoniae ATCC 700603 (MDR); test: Adaptive laboratory evolution (ALE), relative MIC of evolved lines; format: cell-based, Klebsiella pneumoniae
Method in brief: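 Ten parallel populations per antibiotic–ancestor pair were evolved in MHB at 37 °C, starting near 50% growth-inhibiting drug. Every 72 h they were passaged into 0.5–2.5× increasing concentrations, keeping the highest-drug well with OD600 > 0.2.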

[3] = Klebsiella pneumoniae ATCC 10031 (KP-SEN), evolved line 1 versus ancestor
[4] = Klebsiella pneumoniae ATCC 10031 (KP-SEN), evolved line 2 versus ancestor
[5] = Klebsiella pneumoniae ATCC 10031 (KP-SEN), evolved line 3 versus ancestor
[6] = read-out: MIC of evolved line, Klebsiella pneumoniae ATCC 10031 (KP-SEN), evolved line 1
[7] = read-out: MIC of evolved line, Klebsiella pneumoniae ATCC 10031 (KP-SEN), evolved line 2
[8] = read-out: MIC of evolved line, Klebsiella pneumoniae ATCC 10031 (KP-SEN), evolved line 3
[9] = Klebsiella pneumoniae ATCC 10031 (KP-SEN), evolved line 1
[10] = Klebsiella pneumoniae ATCC 10031 (KP-SEN), evolved line 3
[11] = Klebsiella pneumoniae ATCC 10031 (KP-SEN), evolved line 4
[12] = Klebsiella pneumoniae ATCC 10031 (KP-SEN), evolved line 7
[13] = Klebsiella pneumoniae ATCC 10031 (KP-SEN), evolved line 9
[14] = Klebsiella pneumoniae ATCC 10031 (KP-SEN), evolved line 10

C[C@H]1c2cccc(O)c2C(=O)C2=C(O)[C@]3(O)C(=O)C(C(N)=O)=C(O)[C@@H](N(C)C)[C@@H]3[C@@H](O)[C@@H]21 [Doxycycline]
Relative MIC [1, 3]: 4
Relative MIC [1, 4]: 4
Relative MIC [1, 5]: 2
MIC [1, 6]: 1 µg/mL
MIC [1, 7]: 1 µg/mL
MIC [1, 8]: 0.5 µg/mL
Relative MIC ([2]; KP-SEN (ATCC 10031), evolved line 1, MIC of evolved line / MIC of ancestor): 32
Relative MIC ([2]; KP-SEN (ATCC 10031), evolved line 2, MIC of evolved line / MIC of ancestor): 64
Relative MIC ([2]; KP-SEN (ATCC 10031), evolved line 3, MIC of evolved line / MIC of ancestor): 32
Relative MIC ([2]; KP-SEN (ATCC 10031), evolved line 4, MIC of evolved line / MIC of ancestor): 256
Relative MIC ([2]; KP-SEN (ATCC 10031), evolved line 5, MIC of evolved line / MIC of ancestor): 256
Relative MIC ([2]; KP-SEN (ATCC 10031), evolved line 6, MIC of evolved line / MIC of ancestor): 256
Relative MIC ([2]; KP-SEN (ATCC 10031), evolved line 7, MIC of evolved line / MIC of ancestor): 256
Relative MIC ([2]; KP-SEN (ATCC 10031), evolved line 8, MIC of evolved line / MIC of ancestor): 256
Relative MIC ([2]; KP-SEN (ATCC 10031), evolved line 9, MIC of evolved line / MIC of ancestor): 256
Relative MIC ([2]; KP-SEN (ATCC 10031), evolved line 10, MIC of evolved line / MIC of ancestor): 128
Relative MIC (log10) ([2]; KP-SEN (Klebsiella pneumoniae ATCC 10031), evolved line 4 adapted to the named antibiotic): 2.408
Relative MIC (log10) ([2]; KP-SEN (Klebsiella pneumoniae ATCC 10031), evolved line 5 adapted to the named antibiotic): 2.408
Relative MIC (log10) ([2]; KP-SEN (Klebsiella pneumoniae ATCC 10031), evolved line 6 adapted to the named antibiotic): 2.408
Relative MIC (log10) ([2]; KP-SEN (Klebsiella pneumoniae ATCC 10031), evolved line 8 adapted to the named antibiotic): 2.408
Relative MIC (log10) ([2]; KP-SEN (Klebsiella pneumoniae ATCC 10031), evolved line 9 adapted to the named antibiotic): 2.408
Relative MIC [2, 9]: 32
Relative MIC ([2]; Klebsiella pneumoniae ATCC 10031 (KP-SEN), evolved line 2): 64
Relative MIC [2, 10]: 32
Relative MIC [2, 11]: 256
Relative MIC ([2]; Klebsiella pneumoniae ATCC 10031 (KP-SEN), evolved line 5): 256
Relative MIC ([2]; Klebsiella pneumoniae ATCC 10031 (KP-SEN), evolved line 6): 256
Relative MIC [2, 12]: 256
Relative MIC ([2]; Klebsiella pneumoniae ATCC 10031 (KP-SEN), evolved line 8): 256
Relative MIC [2, 13]: 256
Relative MIC [2, 14]: 128

CN(C)[C@@H]1C(O)=C(C(N)=O)C(=O)[C@@]2(O)C(O)=C3C(=O)c4c(O)c(NC(=O)CN5CCCC5)cc(F)c4C[C@H]3C[C@@H]12 [Eravacycline]
Relative MIC [1, 3]: 16
Relative MIC [1, 4]: 16
Relative MIC [1, 5]: 16
Relative MIC ([1]; Klebsiella pneumoniae ATCC 700603 (KP-MDR), evolved line 1 versus ancestor): 8
Relative MIC ([1]; Klebsiella pneumoniae ATCC 700603 (KP-MDR), evolved line 2 versus ancestor): 8
Relative MIC ([1]; Klebsiella pneumoniae ATCC 700603 (KP-MDR), evolved line 3 versus ancestor): 8
MIC [1, 6]: 0.5 µg/mL
MIC [1, 7]: 0.5 µg/mL
MIC [1, 8]: 0.5 µg/mL
MIC ([1]; read-out: MIC of evolved line, Klebsiella pneumoniae ATCC 700603 (KP-MDR), evolved line 1): 32 µg/mL
MIC ([1]; read-out: MIC of evolved line, Klebsiella pneumoniae ATCC 700603 (KP-MDR), evolved line 2): 32 µg/mL
MIC ([1]; read-out: MIC of evolved line, Klebsiella pneumoniae ATCC 700603 (KP-MDR), evolved line 3): 32 µg/mL
Relative MIC ([2]; KP-MDR (ATCC 700603), evolved line 1, MIC of evolved line / MIC of ancestor): 8
Relative MIC ([2]; KP-MDR (ATCC 700603), evolved line 2, MIC of evolved line / MIC of ancestor): 8
Relative MIC ([2]; KP-MDR (ATCC 700603), evolved line 3, MIC of evolved line / MIC of ancestor): 16
Relative MIC ([2]; KP-MDR (ATCC 700603), evolved line 4, MIC of evolved line / MIC of ancestor): 8
Relative MIC ([2]; KP-MDR (ATCC 700603), evolved line 5, MIC of evolved line / MIC of ancestor): 8
Relative MIC ([2]; KP-MDR (ATCC 700603), evolved line 6, MIC of evolved line / MIC of ancestor): 8
Relative MIC ([2]; KP-MDR (ATCC 700603), evolved line 7, MIC of evolved line / MIC of ancestor): 8
Relative MIC ([2]; KP-MDR (ATCC 700603), evolved line 8, MIC of evolved line / MIC of ancestor): 16
Relative MIC ([2]; KP-MDR (ATCC 700603), evolved line 9, MIC of evolved line / MIC of ancestor): 8
Relative MIC ([2]; KP-MDR (ATCC 700603), evolved line 10, MIC of evolved line / MIC of ancestor): 8
Relative MIC (log10) ([2]; KP-MDR (Klebsiella pneumoniae ATCC 700603), evolved line 1 adapted to the named antibiotic): 0.9031
Relative MIC (log10) ([2]; KP-MDR (Klebsiella pneumoniae ATCC 700603), evolved line 3 adapted to the named antibiotic): 1.204
Relative MIC (log10) ([2]; KP-MDR (Klebsiella pneumoniae ATCC 700603), evolved line 4 adapted to the named antibiotic): 0.9031
Relative MIC (log10) ([2]; KP-MDR (Klebsiella pneumoniae ATCC 700603), evolved line 8 adapted to the named antibiotic): 1.204
Relative MIC (log10) ([2]; KP-MDR (Klebsiella pneumoniae ATCC 700603), evolved line 9 adapted to the named antibiotic): 0.9031
Relative MIC ([2]; KP-SEN (ATCC 10031), evolved line 1, evolved vs ancestor): 512
Relative MIC ([2]; KP-SEN (ATCC 10031), evolved line 3, evolved vs ancestor): 256
Relative MIC ([2]; KP-SEN (ATCC 10031), evolved line 4, evolved vs ancestor): 64
Relative MIC ([2]; KP-SEN (ATCC 10031), evolved line 7, evolved vs ancestor): 64
Relative MIC ([2]; KP-SEN (ATCC 10031), evolved line 9, evolved vs ancestor): 256
Relative MIC ([2]; KP-SEN (ATCC 10031), evolved line 10, evolved vs ancestor): 512
Relative MIC (log10) ([2]; KP-SEN (Klebsiella pneumoniae ATCC 10031), evolved line 1): 2.709 log10
Relative MIC (log10) ([2]; KP-SEN (Klebsiella pneumoniae ATCC 10031), evolved line 3): 2.408 log10
Relative MIC (log10) ([2]; KP-SEN (Klebsiella pneumoniae ATCC 10031), evolved line 9): 2.408 log10
Relative MIC (log10) ([2]; KP-SEN (Klebsiella pneumoniae ATCC 10031), evolved line 10): 2.709 log10
Relative MIC (log10) ([2]; KP-SEN, Klebsiella pneumoniae ATCC 10031, evolved line 7): 1.806 log10
Relative MIC [2, 9]: 512
Relative MIC [2, 10]: 256
Relative MIC [2, 11]: 64
Relative MIC [2, 12]: 64
Relative MIC [2, 13]: 256
Relative MIC [2, 14]: 512
Relative MIC ([2]; Klebsiella pneumoniae ATCC 700603 (KP-MDR), evolved line 1): 8
Relative MIC ([2]; Klebsiella pneumoniae ATCC 700603 (KP-MDR), evolved line 2): 8
Relative MIC ([2]; Klebsiella pneumoniae ATCC 700603 (KP-MDR), evolved line 3): 16
Relative MIC ([2]; Klebsiella pneumoniae ATCC 700603 (KP-MDR), evolved line 4): 8
Relative MIC ([2]; Klebsiella pneumoniae ATCC 700603 (KP-MDR), evolved line 5): 8
Relative MIC ([2]; Klebsiella pneumoniae ATCC 700603 (KP-MDR), evolved line 6): 8
Relative MIC ([2]; Klebsiella pneumoniae ATCC 700603 (KP-MDR), evolved line 7): 8
Relative MIC ([2]; Klebsiella pneumoniae ATCC 700603 (KP-MDR), evolved line 8): 16
Relative MIC ([2]; Klebsiella pneumoniae ATCC 700603 (KP-MDR), evolved line 9): 8
Relative MIC ([2]; Klebsiella pneumoniae ATCC 700603 (KP-MDR), evolved line 10): 8
